Assay results: patent US20240228458A1, “PYRIMIDINE DERIVATIVE HAVING PROTEIN KINASE INHIBITORY ACTIVITY, AND THERAPEUTIC PHARMACEUTICAL COMPOSITION COMPRISING SAME” (THERAPEX CO., LTD., priority 2021, published 2024)

How the values were obtained:
Assay type in all cases: cell-based
[1] = system: Ba/F3 cells expressing del19/T790M/C797S (EGFR-DTC); test: Growth inhibition (GI50) of Ba/F3 cells expressing del19/T790M/C797S (EGFR-DTC), Celltiter glo; conditions: Mus musculus, BaF3, 72 h
Method in brief: (§1)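 Ba/F3 cells carrying each EGFR variant were plated at 100,000 cells/ml; after 4 h, compound was added as 10-point 4-fold dilutions (top stock 2 mM, 0.5% DMSO). After 72 h at 37 °C, viability was read by CellTiter-Glo; GI50 is the molar concentration (μM) giving 50% growth inhibition.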

[2] = system: Ba/F3 cells expressing L858R/T790M/C797S (EGFR-LTC); test: Growth inhibition (GI50) of Ba/F3 cells expressing L858R/T790M/C797S (EGFR-LTC), Celltiter glo; conditions: Mus musculus, BaF3, 72 h
Procedure: In this experimental example, a determination was made as to whether the compounds prepared in Examples 1-283 have the ability to inhibit the growth of Ba/F3 cells expressing EGFR-wt, del19/T790M/C797S (EGFR-DTC), L858R/T790M/C797S (EGFR-LTC), del19/T790M (EGFR-DT), and L858R/T790M (EGFR-LT) variants.
The parental Ba/F3 cell line is a population of cells that are not introduced with EGFR variants. Specifically, 100 μl of a cell line expressing each variant was plated in a 96-well plate at a density of 100,000 cells/ml. 10-point, 4-fold serial dilutions of each compound were prepared, starting at 2 mM. After 4 h, 0.5 μl of the compound (0.5% DMSO) was added, followed by incubation at 37° C. and 5% CO2 for 72 h. After incubation, the number of viable cells was measured using a Celltiter glo assay kit (Promega) and the GI50 of the compound was determined. The term “GI50” refers to the molar concentration (μM) of the compound required for 50% growth inhibition of cells.

[3] = system: parental Ba/F3 cell line; test: Growth inhibition (GI50) of the parental Ba/F3 cell line (not introduced with EGFR variants), Celltiter glo; conditions: Mus musculus, BaF3, 72 h, parental Ba/F3 cells
Method in brief: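 Viable cell count by CellTiter-Glo after 72 h at 37 °C gave GI50 values (μM, 50% growth inhibition). Cells lacking EGFR variants were seeded at 100,000 cells/ml and dosed 4 h later with 4-fold serial dilutions from a 2 mM stock, 0.5% DMSO.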

[4] = system: Ba/F3 cells expressing EGFR-wt; test: Growth inhibition (GI50) of Ba/F3 cells expressing EGFR-wt, Celltiter glo; conditions: Mus musculus, BaF3, 72 h
Method in brief: as §1

GI50 [1] [nM]	GI50 [2] [nM]	GI50 [4] [nM]	Structure (SMILES)	GI50 [3] [nM]
25 to 100	25 to 100	500 to 2000	COc1cc(N2CCC(N3CCN(C)CC3)CC2)c(C)cc1Nc1ncc(Cl)c(Nc2cc(Cl)c(Cl)cc2NS(C)(=O)=O)n1 [Example 99, N-(4,5-dichloro-2-((5-chloro-2-((2-methoxy-5-methyl-4-(4-(4-methylpiperazin-1-yl)piperidin-1-yl)phenyl)amino)pyrimidin-4-yl)amino)phenyl)methanesulfonamide]	> 10000
100 to 500	100 to 500	500 to 2000	COc1nc(N2CCC(N3CCN(C)CC3)CC2)c(C)cc1Nc1ncc(Cl)c(Nc2cc(Cl)c(Cl)cc2NS(C)(=O)=O)n1 [Example 100]	2000 to 10000
100 to 500	100 to 500	100 to 500	CN1CCN(C2CCN(c3ccc(Nc4ncc(Cl)c(Nc5cc(Cl)c(Cl)cc5NS(C)(=O)=O)n4)cc3F)CC2)CC1 [Example 101, N-(4,5-dichloro-2-((5-chloro-2-((3-fluoro-4-(4-(4-methylpiperazin-1-yl)piperidin-1-yl)phenyl)amino)pyrimidin-4-yl)amino)phenyl)methanesulfonamide]	2000 to 10000
500 to 2000	100 to 500	500 to 2000	CN1CCN(C2CCN(c3ccc4cc(Nc5ncc(Cl)c(Nc6cc(Cl)c(Cl)cc6NS(C)(=O)=O)n5)ccc4n3)CC2)CC1 [Example 102, N-(4,5-dichloro-2-((5-chloro-2-((2-(4-(4-methylpiperazin-1-yl)piperidin-1-yl)quinolin-6-yl)amino)pyrimidin-4-yl)amino)phenyl)methanesulfonamide]	2000 to 10000
100 to 500	25 to 100	500 to 2000	COc1cc(N2CCC(N3CCN(C)CC3)CC2)c(Cl)cc1Nc1ncc(Cl)c(Nc2cc(Cl)c(Cl)cc2NS(C)(=O)=O)n1 [Example 103]	2000 to 10000
500 to 2000	500 to 2000	500 to 2000	COc1cc(N2CCC(N(C)CCN(C)C)CC2)c(C)cc1Nc1ncc(Cl)c(Nc2cc(Cl)c(Cl)cc2NS(C)(=O)=O)n1 [Example 104, N-(4,5-dichloro-2-((5-chloro-2-((4-(4-((2-(dimethylamino)ethyl)(methyl)amino)piperidin-1-yl)-2-methoxy-5-methylphenyl)amino)pyrimidin-4-yl)amino)phenyl)methanesulfonamide]	500 to 2000
> 10000	> 10000	> 10000	COc1cc(N(C)CCCN2CCN(C)CC2)c(C)cc1Nc1ncc(Cl)c(Nc2cc(Cl)c(Cl)cc2NS(C)(=O)=O)n1 [Example 105, N-(4,5-dichloro-2-((5-chloro-2-((2-methoxy-5-methyl-4-(methyl(3-(4-methylpiperazin-1-yl)propyl)amino)phenyl)amino)pyrimidin-4-yl)amino)phenyl)methanesulfonamide]	> 10000
1 to 25	25 to 100	500 to 2000	COc1cc(N2CCC(N3CCN(C)CC3)CC2)c(C)cc1Nc1ncc(Br)c(Nc2cc(C)ccc2NS(C)(=O)=O)n1 [Example 106, N-(2-((5-bromo-2-((2-methoxy-5-methyl-4-(4-(4-methylpiperazin-1-yl)piperidin-1-yl)phenyl)amino)pyrimidin-4-yl)amino)-4-methylphenyl)methanesulfonamide]	500 to 2000
25 to 100	100 to 500	500 to 2000	COc1cc(N2CCC(N3CCN(C)CC3)CC2)c(Cl)cc1Nc1ncc(Br)c(Nc2cc(C)ccc2NS(C)(=O)=O)n1 [Example 107, N-(2-((5-bromo-2-((5-chloro-2-methoxy-4-(4-(4-methylpiperazin-1-yl)piperidin-1-yl)phenyl)amino)pyrimidin-4-yl)amino)-4-methylphenyl)methanesulfonamide]	500 to 2000
25 to 100	100 to 500	500 to 2000	COc1cc(N2CCC(N3CCN(C)CC3)CC2)c(F)cc1Nc1ncc(Br)c(Nc2cc(C)ccc2NS(C)(=O)=O)n1 [Example 108]	2000 to 10000
25 to 100	1 to 25	100 to 500	Cc1ccc(NS(C)(=O)=O)c(Nc2nc(Nc3cc(C)c(N4CCC(N5CCN(C)CC5)CC4)cc3Cl)ncc2Br)c1 [Example 109, N-(2-((5-bromo-2-((2-chloro-5-methyl-4-(4-(4-methylpiperazin-1-yl)piperidin-1-yl)phenyl)amino)pyrimidin-4-yl)amino)-4-methylphenyl)methanesulfonamide]	500 to 2000

More lines, now with the values behind:

Structure (SMILES)	GI50 [1] [nM]	GI50 [2] [nM]	GI50 [4] [nM]	GI50 [3] [nM]
COc1nc(N2CCC(N3CCN(C)CC3)CC2)ccc1Nc1ncc(Cl)c(N(C)c2cc(Cl)c(Cl)cc2N(C)C(C)=O)n1 [Example 79, N-(4,5-dichloro-2-((5-chloro-2-((2-methoxy-6-(4-(4-methylpiperazin-1-yl)piperidin-1-yl)pyridin-3-yl)amino)pyrimidin-4-yl)(methyl)amino)phenyl)-N-methylacetamide]	500 to 2000	500 to 2000	2000 to 10000	500 to 2000
COc1nc(N2CCC(N3CCN(C)CC3)CC2)ccc1Nc1ncc(Cl)c(Nc2cc(Cl)ccc2NS(C)(=O)=O)n1 [Example 81]	500 to 2000	500 to 2000	2000 to 10000	500 to 2000
COc1cc(N2CCC(N3CCN(C)CC3)CC2)ccc1Nc1ncc(Cl)c(Nc2cc(Cl)ccc2NS(C)(=O)=O)n1 [Example 82, N-(4-chloro-2-((5-chloro-2-((2-methoxy-4-(4-(4-methylpiperazin-1-yl)piperidin-1-yl)phenyl)amino)pyrimidin-4-yl)amino)phenyl)methanesulfonamide]	100 to 500	100 to 500	500 to 2000	500 to 2000
COc1nc(N2CCC(N3CCN(C)CC3)CC2)c(C)cc1Nc1ncc(Cl)c(Nc2cc(Cl)ccc2NS(C)(=O)=O)n1 [Example 83, N-(4-chloro-2-((5-chloro-2-((2-methoxy-5-methyl-6-(4-(4-methylpiperazin-1-yl)piperidin-1-yl)pyridin-3-yl)amino)pyrimidin-4-yl)amino)phenyl)methanesulfonamide]	100 to 500	100 to 500	500 to 2000	2000 to 10000
CN1CCN(C2CCN(c3ccc(Nc4ncc(Cl)c(Nc5cc(Cl)ccc5NS(C)(=O)=O)n4)cc3F)CC2)CC1 [Example 84, N-(4-chloro-2-((5-chloro-2-((3-fluoro-4-(4-(4-methylpiperazin-1-yl)piperidin-1-yl)phenyl)amino)pyrimidin-4-yl)amino)phenyl)methanesulfonamide]	100 to 500	100 to 500	100 to 500	500 to 2000
COc1cc(N2CCC(N3CCC(N(C)C)C3)CC2)c(C)cc1Nc1ncc(Br)c(Nc2cc(Cl)ccc2NS(C)(=O)=O)n1 (centres unmarked) [Example 91, N-(2-((5-bromo-2-((4-(4-(3-(dimethylamino)pyrrolidin-1-yl)piperidin-1-yl)-2-methoxy-5-methylphenyl)amino)pyrimidin-4-yl)amino)-4-chlorophenyl)methanesulfonamide]	1 to 25	25 to 100	100 to 500	2000 to 10000
COc1cc(N2CCC(N3CCN(C)CC3)CC2)c(F)cc1Nc1ncc(Br)c(Nc2cc(Cl)ccc2NS(C)(=O)=O)n1 [Example 92, N-(2-((5-bromo-2-((5-fluoro-2-methoxy-4-(4-(4-methylpiperazin-1-yl)piperidin-1-yl)phenyl)amino)pyrimidin-4-yl)amino)-4-chlorophenyl)methanesulfonamide]	1 to 25	25 to 100	100 to 500	2000 to 10000
Cc1cc(Nc2ncc(Br)c(Nc3cc(Cl)ccc3NS(C)(=O)=O)n2)c(Cl)cc1N1CCC(N2CCN(C)CC2)CC1 [Example 93, N-(2-((5-bromo-2-((2-chloro-5-methyl-4-(4-(4-methylpiperazin-1-yl)piperidin-1-yl)phenyl)amino)pyrimidin-4-yl)amino)-4-chlorophenyl)methanesulfonamide]	1 to 25	25 to 100	500 to 2000	2000 to 10000
Cc1cc(Nc2ncc(Br)c(Nc3cc(Cl)ccc3NS(C)(=O)=O)n2)c(Cl)cc1N1CCC(N2CCC(N(C)C)C2)CC1 (centres unmarked) [Example 96, N-(2-((5-bromo-2-((2-chloro-4-(4-(3-(dimethylamino)pyrrolidin-1-yl)piperidin-1-yl)-5-methylphenyl)amino)pyrimidin-4-yl)amino)-4-chlorophenyl)methanesulfonamide]	500 to 2000	500 to 2000	500 to 2000	> 10000
